The source of these data is US20120095055A1, “HEXAHYDROCYCLOPENTYL[f]INDAZOLE 5-HYDROXYMETHYL ETHANOLS AND DERIVATIVES THEREOF AS SELECTIVE GLUCOCORTICOID RECEPTOR MODULATORS” (Merck Sharp & Dohme, Corp., priority 2009, published 2012).

The target of the assay is T1, human GR (Homo sapiens, UniProt P04150).
T1 construct: naturally expresses the human GR; endogenous in cells
T1 sequence (P04150 1-777): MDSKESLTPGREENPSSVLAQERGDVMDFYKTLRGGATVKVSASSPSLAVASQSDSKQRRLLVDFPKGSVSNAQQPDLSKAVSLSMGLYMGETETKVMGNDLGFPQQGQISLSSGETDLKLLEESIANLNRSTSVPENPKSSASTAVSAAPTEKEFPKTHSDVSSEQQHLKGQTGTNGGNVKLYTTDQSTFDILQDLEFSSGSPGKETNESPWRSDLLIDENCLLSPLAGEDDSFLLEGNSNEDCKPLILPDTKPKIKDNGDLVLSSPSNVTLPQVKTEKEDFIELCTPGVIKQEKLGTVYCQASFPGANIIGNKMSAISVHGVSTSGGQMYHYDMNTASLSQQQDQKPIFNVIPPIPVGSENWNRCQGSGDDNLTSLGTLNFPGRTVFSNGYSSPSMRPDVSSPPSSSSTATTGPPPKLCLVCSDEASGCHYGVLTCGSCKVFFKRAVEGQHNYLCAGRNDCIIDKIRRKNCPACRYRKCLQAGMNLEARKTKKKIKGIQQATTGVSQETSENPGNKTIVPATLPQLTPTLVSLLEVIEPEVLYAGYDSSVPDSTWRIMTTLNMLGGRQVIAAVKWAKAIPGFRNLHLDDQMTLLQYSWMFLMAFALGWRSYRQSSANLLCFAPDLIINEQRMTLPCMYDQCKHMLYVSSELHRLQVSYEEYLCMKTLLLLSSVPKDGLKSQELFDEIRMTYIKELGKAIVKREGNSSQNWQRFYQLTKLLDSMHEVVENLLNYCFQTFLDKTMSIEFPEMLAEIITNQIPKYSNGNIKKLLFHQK
Briefly: Transrepression Assay (GITAR), TNFα-β-lactamase reporter in U937 cells. In kind it is cell-based. The settings on record: for Emax: U-937, activity repressed by 100 nM dexamethasone set as 100%; for EC50: inflection point (IP), TNFα promoter β-lactamase reporter, PMA/LPS; for Transrepression U937 Cells GITAR Emax (%): activity repressed by 100 nM dexamethasone set as 100%. The source says: This assay assesses the ability of test compounds to control transcription from the TNFα-β-lactamase reporter gene in U937 cells, a human myelomonocytic leukemia cell line that naturally expresses the human GR. The assay measures compound dependent-repression of the TNFa promoter linked to a reporter gene.
The human U937 cells that had been stablely transfected with the TNF-α promoter driving β-lactamase are used for this assay. U937 cells contain an endogenous glucocorticoid receptor (GR). Cells are maintained in RPMI 1640 Growth medium (Gibco Cat#11875-093) containing 25 mM HEPES, 10% FBS, 2 mM L-Glutamine, 1 mM Sodium pyruvate, 25 μg/ml Gentamicin (Gibco Cat#15710-064), 1:1000 2-Mercaptoethanol (Gibco Cat#21985-023) and 0.8 mg/ml G418 (Gibco Cat#10131-027). The density of the cells in the flask needs to be about 1×106-3×10^6/ml at the time of harvest. Usually, the cells are split to 1.2˜1.4×10^5/ml (1:10) 3 days prior to the assay. 50,000 cells/well are plated in 96 well black-walled plates the day of assay. Test compounds are added 10 μL/well, and cells are incubated at 37° C. for 30˜45 min. For assaying compounds, first dilute 1:10 in DMSO to make 1 mM, then further dilute 1:100 in medium to make 10× stock prior to adding to the cells. Add 50 ng/ml PMA (Sigma, cat# P8139) 10 μL/well to a final concentration 5 ng/ml, and 1 μg/ml LPS (Sigma, cat# L4130) 10 μL/well to a final concentration 100 ng/ml. Incubate cells at 37° C. overnight for ˜18 hr. PMA is stored frozen as 100 μg/ml stock in DMSO. Dilute 1:10 in DMSO for a working stock of 10 μg/ml and store at −20 C. For assaying, dilute the 10 μg/ml working stock 1:200 in medium to make a 10× solution (50 ng/ml). Store frozen LPS at 1 mg/ml in PBS, dilute 1:1000 in medium to make 10× (1 μg/ml) for the assay. Add 6× loading buffer (CCF2-AM) 20 μL/well, and incubate at room temperature for 70˜90 min. […] The activity repressed by 100 nM dexamethasone alone is set as 100% activity.

For `C[C@]12Cc3cnn(-c4ccc(F)cc4)c3C=C1CC[C@@]2(CO)CC(O)C1CC1` (single isomer, unassigned) [Example 20a, 1-cyclopropyl-2-[(4αS)-1-(4-fluorophenyl)-5-(hydroxymethyl)-4α-methyl-1,4,4α,5,6,7-hexahydrocyclopenta[f]indazol-5-yl]ethanol], the Emax stood at 79.9% and the response was half-maximal at 133 nM (EC50).
On to `C[C@]12Cc3cnn(-c4ccc(F)cc4)c3C=C1CC[C@@]2(CO)CC(O)C1CC1` (single isomer, unassigned) [Example 20b, 1-cyclopropyl-2-[(4αS)-1-(4-fluorophenyl)-5-(hydroxymethyl)-4α-methyl-1,4,4α,5,6,7-hexahydrocyclopenta[f]indazol-5-yl]ethanol], for which the “Transrepression U937 Cells GITAR Emax (%)” value amounted to 72.0% and a half-maximal response (EC50) required 573 nM.
`COc1cccnc1C(O)C[C@]1(CO)CCC2=Cc3c(cnn3-c3ccc(F)cc3)C[C@@]21C` (single isomer, unassigned) [Example 21a] yielded an Emax of 85.4% and an EC50 of 101 nM.
For the compound `COc1cccnc1C(O)C[C@]1(CO)CCC2=Cc3c(cnn3-c3ccc(F)cc3)C[C@@]21C` (single isomer, unassigned) [Example 21b], the “Transrepression U937 Cells GITAR Emax (%)” value amounted to 91.3% and the EC50 came out at 18.7 nM.
For the compound `C[C@]12Cc3cnn(-c4ccc(F)cc4)c3C=C1CC[C@@]2(CO)CC(O)c1ccc(F)cn1` (single isomer, unassigned) [Example 22a], the Emax came to 90.9% and a half-maximal response (EC50) required 18.7 nM.
Regarding `C[C@]12Cc3cnn(-c4ccc(F)cc4)c3C=C1CC[C@@]2(CO)CC(O)c1ccc(F)cn1` (single isomer, unassigned) [Example 22b], the “Transrepression U937 Cells GITAR Emax (%)” value is given as 90.6% and the EC50 stood at 14.1 nM.
With `C[C@]12Cc3cnn(-c4ccccc4)c3C=C1CC[C@@]2(CO)CC(O)c1ccccn1` (single isomer, unassigned) [Example 23a], the Emax was found to be 82.6% and the EC50 came to 22.8 nM.
For the compound `C[C@]12Cc3cnn(-c4ccccc4)c3C=C1CC[C@@]2(CO)CC(O)c1ccccn1` (single isomer, unassigned) [Example 23b], the “Transrepression U937 Cells GITAR Emax (%)” value is 83.7% and the EC50 stood at 49.6 nM.
`COc1ccc(C(O)C[C@]2(CO)CCC3=Cc4c(cnn4-c4ccc(F)cc4)C[C@@]32C)nc1` (single isomer, unassigned) [Example 24a] came in with a maximal response (Emax) of 63% and an EC50 of 447 nM.
Regarding `COc1ccc(C(O)C[C@]2(CO)CCC3=Cc4c(cnn4-c4ccc(F)cc4)C[C@@]32C)nc1` (single isomer, unassigned) [Example 24b], the “Transrepression U937 Cells GITAR Emax (%)” value was found to be 57.9% and the EC50 was 376 nM.
The compound `CC(O)(C[C@]1(CO)CCC2=Cc3c(cnn3-c3ccc(F)cc3)C[C@@]21C)c1cccnc1` (single isomer, unassigned) [Example 25a] registered an Emax of 61.3% and an EC50 of 293 nM.
For `CC(O)(C[C@]1(CO)CCC2=Cc3c(cnn3-c3ccc(F)cc3)C[C@@]21C)c1cccnc1` (single isomer, unassigned) [Example 25b], the “Transrepression U937 Cells GITAR Emax (%)” value was 69.8% and a half-maximal effect (EC50) was put at 186 nM.
In the case of `COc1cccnc1C(O)C[C@]1(CO)CCC2=Cc3c(cnn3-c3cccc(F)c3)C[C@@]21C` (single isomer, unassigned) [Example 26a], the “Transrepression U937 Cells GITAR Emax (%)” value is 82.1% and the EC50 was determined as 80.8 nM.
As to `COc1cccnc1C(O)C[C@]1(CO)CCC2=Cc3c(cnn3-c3cccc(F)c3)C[C@@]21C` (single isomer, unassigned) [Example 26b], the “Transrepression U937 Cells GITAR Emax (%)” value is 51.8% and the EC50 was 1510 nM.
`C[C@]12Cc3cnn(-c4cccc(F)c4)c3C=C1CC[C@@]2(CO)CC(O)c1cccnc1` (single isomer, unassigned) [Example 27a] yielded an Emax of 64.2% and a concentration for a half-maximal effect (EC50) of 598 nM.
`C[C@]12Cc3cnn(-c4cccc(F)c4)c3C=C1CC[C@@]2(CO)CC(O)c1cccnc1` (single isomer, unassigned) [Example 27b]: the “Transrepression U937 Cells GITAR Emax (%)” value is reported as 71.9% and the EC50 was 334 nM.
Consider `C[C@]12Cc3cnn(-c4ccc(F)cc4)c3C=C1CC[C@@]2(CO)CC(O)C(F)(F)F` (single isomer, unassigned) [Example 28a], for which the Emax amounted to 81.2% and the EC50 was found to be 54.3 nM.
Consider `C[C@]12Cc3cnn(-c4ccc(F)cc4)c3C=C1CC[C@@]2(CO)CC(O)C(F)(F)F` (single isomer, unassigned) [Example 28b], for which the “Transrepression U937 Cells GITAR Emax (%)” value is 80.2% and the concentration for a half-maximal effect (EC50) stood at 90.9 nM.
In the case of `C[C@]12Cc3cnn(-c4ccccc4)c3C=C1CC[C@@]2(CO)CC(O)c1cccnc1` (single isomer, unassigned) [Example 29a], the Emax stood at 66.6% and a half-maximal response (EC50) required 176 nM.
As for `C[C@]12Cc3cnn(-c4ccccc4)c3C=C1CC[C@@]2(CO)CC(O)c1cccnc1` (single isomer, unassigned) [Example 29b], the “Transrepression U937 Cells GITAR Emax (%)” value is 60.9% and the EC50 came to 103 nM.
`C[C@]12Cc3cnn(-c4ccc(F)cc4)c3C=C1CC[C@@]2(CO)CC(O)c1ccccc1F` (stereo partly drawn) [Example 4, 1-(2-fluorophenyl)-2-[(4αS,5R)-1-(4-fluorophenyl)-5-(hydroxymethyl)-4α-methyl-1,4,4α,5,6,7-hexahydrocyclopenta[f]indazol-5-yl]ethanol] yielded an Emax of 104% and an EC50 of 28.2 nM.
For `C[C@]12Cc3cnn(-c4ccc(F)cc4)c3C=C1CC[C@@]2(CO)CC(O)c1cccc(Cl)c1` (stereo partly drawn) [Example 8, 1-(3-chlorophenyl)-2-[(4αS,5R)-1-(4-fluorophenyl)-5-(hydroxymethyl)-4α-methyl-1,4,4α,5,6,7-hexahydrocyclopenta[f]indazol-5-yl]ethanol], in that order: 89.9% and 21.4 nM.
With `C[C@]12Cc3cnn(-c4ccc(F)cc4)c3C=C1CC[C@@]2(CO)CC(O)c1cc(F)cc(F)c1` (stereo partly drawn) [Example 9, 1-(3,5-difluorophenyl)-2-[(4αS,5R)-1-(4-fluorophenyl)-5-(hydroxymethyl)-4α-methyl-1,4,4α,5,6,7-hexahydrocyclopenta[f]indazol-5-yl]ethanol], the Emax is 102% and the midpoint of the response, the EC50, lay at 0.6 nM.
As to `C[C@]12Cc3cnn(-c4ccc(F)cc4)c3C=C1CC[C@@]2(CO)CC1OC(=O)c2ccccc21` (stereo partly drawn) [Example 11, 3-{[(4αS,5R)-1-(4-fluorophenyl)-5-(hydroxymethyl)-4α-methyl-1,4,4α,5,6,7,7a,8-octahydrocyclopenta[f]indazol-5-yl]methyl}-2-benzofuran-1(3H)-one], the Emax is 84.6% and a half-maximal effect (EC50) was put at 241 nM.
Regarding `Cc1ccc(C(O)C[C@]2(CO)CCC3=Cc4c(cnn4-c4ccc(F)cc4)C[C@@]32C)nc1` (stereo partly drawn) [Example 16, 2-[(4αS,5R)-1-(4-fluorophenyl)-5-(hydroxymethyl)-4α-methyl-1,4,4α,5,6,7-hexahydrocyclopenta[f]indazol-5-yl]-1-(5-methylpyridin-2-yl)ethanol], the Emax is 85.4% and a half-maximal effect (EC50) was put at 21.4 nM.
